Legend:
[1] = target: T1, ΔF508-CFTR (Homo sapiens, UniProt P13569, DEL508-508); assay: CFTR cell surface levels using HRP-tagged ΔF508-CFTR expressing CFBE cells, in the presence of a co-corrector; type: cell-based; conditions: HRP-tagged ΔF508-CFTR CFBE cells, in the presence of 3 μM co-corrector; for EC50: read-out: EC50
T1 construct: host or cells: CFBE41o-, doxycycline-inducible
Outline: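 Chemiluminescent read-out of surface HRP (15 min, dark) after PBS washes. Activity is normalized as 100×(sample−DMSO)/(3 μM co-corrector alone−DMSO).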

[2] = target: T1, ΔF508-CFTR; assay: CFTR cell surface levels using HRP-tagged ΔF508-CFTR expressing CFBE cells, intrinsic corrector capacity; type: cell-based; design: % Activation: concentration or dose not given beside the values; conditions: HRP-tagged ΔF508-CFTR expressing CFBE41o- cells, compound alone (intrinsic corrector capacity), 20 hours at 33° C.; for EC50: read-out: EC50
Outline: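 Surface ΔF508-CFTR was measured as HRP chemiluminescence from an extracellular-loop-4 tag, expressed as percent activity between DMSO and a […] corrector control.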

T1 sequence (P13569 with tags, fused parts or gaps DEL508-508): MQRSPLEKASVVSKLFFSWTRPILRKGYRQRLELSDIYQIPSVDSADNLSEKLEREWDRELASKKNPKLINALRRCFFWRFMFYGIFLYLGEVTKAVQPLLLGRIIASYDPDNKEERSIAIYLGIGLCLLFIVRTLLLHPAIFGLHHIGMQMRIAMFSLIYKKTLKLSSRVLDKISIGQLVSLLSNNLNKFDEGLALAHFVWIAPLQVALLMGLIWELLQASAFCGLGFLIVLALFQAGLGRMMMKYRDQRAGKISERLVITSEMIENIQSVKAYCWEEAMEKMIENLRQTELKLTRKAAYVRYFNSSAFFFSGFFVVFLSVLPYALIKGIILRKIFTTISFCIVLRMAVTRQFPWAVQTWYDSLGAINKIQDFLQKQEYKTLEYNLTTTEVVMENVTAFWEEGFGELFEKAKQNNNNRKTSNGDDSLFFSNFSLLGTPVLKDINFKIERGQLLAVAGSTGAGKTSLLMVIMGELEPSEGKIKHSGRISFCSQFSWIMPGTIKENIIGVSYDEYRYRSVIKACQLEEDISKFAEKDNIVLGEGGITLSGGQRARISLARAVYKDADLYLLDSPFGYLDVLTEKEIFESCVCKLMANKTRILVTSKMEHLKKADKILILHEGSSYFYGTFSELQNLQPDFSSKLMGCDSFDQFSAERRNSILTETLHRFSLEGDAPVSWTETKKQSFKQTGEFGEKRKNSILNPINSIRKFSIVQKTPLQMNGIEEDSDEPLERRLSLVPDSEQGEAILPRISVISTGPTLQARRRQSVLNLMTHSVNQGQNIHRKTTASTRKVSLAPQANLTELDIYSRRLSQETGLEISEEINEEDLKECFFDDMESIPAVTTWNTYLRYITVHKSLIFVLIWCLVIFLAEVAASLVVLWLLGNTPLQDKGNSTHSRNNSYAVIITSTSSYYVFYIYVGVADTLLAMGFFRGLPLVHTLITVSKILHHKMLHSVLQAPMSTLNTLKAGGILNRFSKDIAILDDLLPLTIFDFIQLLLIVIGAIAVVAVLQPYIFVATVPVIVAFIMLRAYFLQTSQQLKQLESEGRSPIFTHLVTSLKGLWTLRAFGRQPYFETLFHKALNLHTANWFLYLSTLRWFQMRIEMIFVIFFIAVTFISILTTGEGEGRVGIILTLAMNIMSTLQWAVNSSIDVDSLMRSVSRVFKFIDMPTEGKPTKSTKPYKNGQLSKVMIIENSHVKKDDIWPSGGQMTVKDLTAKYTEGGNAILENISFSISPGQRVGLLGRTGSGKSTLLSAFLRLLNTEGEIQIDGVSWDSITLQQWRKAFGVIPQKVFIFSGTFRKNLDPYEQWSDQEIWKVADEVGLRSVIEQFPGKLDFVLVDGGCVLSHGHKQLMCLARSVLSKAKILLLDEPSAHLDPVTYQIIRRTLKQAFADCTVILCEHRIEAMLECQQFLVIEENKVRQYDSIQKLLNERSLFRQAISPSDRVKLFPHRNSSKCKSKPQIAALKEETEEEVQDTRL

Structure (SMILES) | % Activation [1] | EC50 [1] | % Activation [2] | EC50 [2]
CCOc1nccc(-n2nc(C3CCC3)c3c(N4CCC(N5CCOCC5)CC4)cc(C(=O)NS(=O)(=O)N(C)C)nc32)n1 [Compound 622, 3-cyclobutyl-N-(dimethylsulfamoyl)-1-(2-ethoxypyrimidin-4-yl)-4-[4-(morpholin-4-yl)piperidin-1-yl]-1H-pyrazolo[3,4-b]pyridine-6-carboxamide] | 251.25% | 309 nM | 89.445% | 568 nM
CC(C)c1nn(C2CCCC2)c2nc(C(=O)NS(C)(=O)=O)cc(-c3ccc(N(C)C)nc3)c12 [Compound 55, 1-cyclopentyl-4-[6-(dimethylamino)pyridin-3-yl]-N-(methanesulfonyl)-3-(propan-2-yl)-1H-pyrazolo[3,4-b]pyridine-6-carboxamide] | 341.65% | 1050 nM | 126.75% | 1220 nM
COCCOCC1(F)CCCN(c2cc(C(=O)NS(C)(=O)=O)nc3c2c(C2CCC2)nn3-c2ccccc2)C1 (stereo not shown) [Compound 503, 3-cyclobutyl-4-{3-fluoro-3-[(2-methoxyethoxy)methyl]piperidin-1-yl}-N-(methanesulfonyl)-1-phenyl-1H-pyrazolo[3,4-b]pyridine-6-carboxamide] | 433.2% | 405 nM | 203.4% | 419 nM
COCC1CCN(Cc2cc(C(=O)NS(=O)(=O)N(C)C)nc3c2c(C2CCC2)nn3-c2ccc(F)cc2)CC1 [Compound 521, 3-cyclobutyl-N-(dimethylsulfamoyl)-1-(4-fluorophenyl)-4-{[4-(methoxymethyl)piperidin-1-yl]methyl}-1H-pyrazolo[3,4-b]pyridine-6-carboxamide] | 217.3% | 712 nM | 31.93% | 
CCS(=O)(=O)NC(=O)c1cc(-c2ccc(N3CCOCC3)cc2)c2c(C)nn(-c3cccc(Cl)c3)c2n1 [Compound 66, 1-(3-chlorophenyl)-N-(ethanesulfonyl)-3-methyl-4-[4-(morpholin-4-yl)phenyl]-1H-pyrazolo[3,4-b]pyridine-6-carboxamide] | 332.85% | 6670 nM | 142.65% | 1860 nM
CCCN(C)S(=O)(=O)NC(=O)c1cc(N2CCC(N3CCN(C4CC4)CC3)CC2)c2c(C3CCC3)nn(-c3ccccc3)c2n1 [Compound 554, 3-cyclobutyl-4-[4-(4-cyclopropylpiperazin-1-yl)piperidin-1-yl]-N-[methyl(propyl)sulfamoyl]-1-phenyl-1H-pyrazolo[3,4-b]pyridine-6-carboxamide] | 481% | 56.9 nM | 269.45% | 108 nM
Cc1nn(-c2cccc(OC(F)(F)F)c2)c2nc(C(=O)NS(C)(=O)=O)cc(-c3ccc(N4CCOCC4)cc3)c12 [Compound 6, N-(methanesulfonyl)-3-methyl-4-[4-(morpholin-4-yl)phenyl]-1-[3-(trifluoromethoxy)phenyl]-1H-pyrazolo[3,4-b]pyridine-6-carboxamide] | 387.1% | 511 nM | 232.1% | 808 nM
CN(C)S(=O)(=O)NC(=O)c1cc(N2CCC(N3CCOC(C)(C)C3)CC2)c2c(C3CCC3)nn(-c3ccc(F)cc3)c2n1 [Compound 573, 3-cyclobutyl-4-[4-(2,2-dimethylmorpholin-4-yl)piperidin-1-yl]-N-(dimethylsulfamoyl)-1-(4-fluorophenyl)-1H-pyrazolo[3,4-b]pyridine-6-carboxamide] | 467.57% | 58.5 nM | 270.53% | 104 nM
CNS(=O)(=O)NC(=O)c1cc(N2CCC(N3CCOCC3)CC2)c2c(C3CCC3)nn(-c3ccc(F)cc3)c2n1 [Compound 517, 3-cyclobutyl-1-(4-fluorophenyl)-N-(methylsulfamoyl)-4-[4-(morpholin-4-yl)piperidin-1-yl]-1H-pyrazolo[3,4-b]pyridine-6-carboxamide] | 520.08% | 75.8 nM | 320.5% | 184 nM
CNS(=O)(=O)NC(=O)c1cc(N2CCC(COC)CC2)c2c(C3CCC3)nn(-c3ccc(F)cc3)c2n1 [Compound 669, 3-cyclobutyl-1-(4-fluorophenyl)-4-[4-(methoxymethyl)piperidin-1-yl]-N-(methylsulfamoyl)-1H-pyrazolo[3,4-b]pyridine-6-carboxamide] | 394% | 244 nM | 334.9% | 211 nM
CN(C)S(=O)(=O)NC(=O)c1cc(N2CCC(N3CCOCC3)CC2)c2c(C3CCC3)nn(-c3cccc(F)c3)c2n1 [Compound 512, 3-cyclobutyl-N-(dimethylsulfamoyl)-1-(3-fluorophenyl)-4-[4-(morpholin-4-yl)piperidin-1-yl]-1H-pyrazolo[3,4-b]pyridine-6-carboxamide] | 415.25% | 65.3 nM | 222.27% | 121 nM
CC(C)c1nn(-c2cccc(N3CC(O)C3)c2)c2nc(C(=O)NS(C)(=O)=O)cc(-c3ccc(N4CCOCC4)cc3)c12 [Compound 105, 1-[3-(3-hydroxyazetidin-1-yl)phenyl]-N-(methanesulfonyl)-4-[4-(morpholin-4-yl)phenyl]-3-(propan-2-yl)-1H-pyrazolo[3,4-b]pyridine-6-carboxamide] | 457.85% | 699 nM | 258.1% | 908 nM
O=C(NS(=O)(=O)N1CCC(F)CC1)c1cc(N2CCC(CN3CCCC3)CC2)c2c(C3CCC3)nn(-c3ccccc3)c2n1 [Compound 459, 3-cyclobutyl-N-(4-fluoropiperidine-1-sulfonyl)-1-phenyl-4-{4-[(pyrrolidin-1-yl)methyl]piperidin-1-yl}-1H-pyrazolo[3,4-b]pyridine-6-carboxamide] | 388.87% | 96.1 nM | 225.65% | 149 nM
COCC1CCN(c2cc(C(=O)NS(=O)(=O)CCl)nc3c2c(C2CCC2)nn3-c2ccccc2)CC1 [AC07] | 466.9% | 76.6 nM | 268.5% | 139 nM
CC(C)c1nn(-c2cccc(C(F)(F)F)c2)c2nc(C(=O)NS(C)(=O)=O)cc(-c3ccc(N4CCC(C#N)CC4)cc3)c12 [Compound 135, 4-[4-(4-cyanopiperidin-1-yl)phenyl]-N-(methanesulfonyl)-3-(propan-2-yl)-1-[3-(trifluoromethyl)phenyl]-1H-pyrazolo[3,4-b]pyridine-6-carboxamide] | 512.9% | 373 nM | 299.63% | 696 nM
Cc1nn(-c2ccccc2)c2nc(C(=O)NS(=O)(=O)c3ccccc3)cc(-c3ccc(N4CCOCC4)cc3)c12 [Compound 2, N-(benzenesulfonyl)-3-methyl-4-[4-(morpholin-4-yl)phenyl]-1-phenyl-1H-pyrazolo[3,4-b]pyridine-6-carboxamide] | 431.5% | 1120 nM | 226.75% | 1870 nM
O=C(NS(=O)(=O)N1CCCC1)c1cc(N2CCC(N3CCOCC3)CC2)c2c(C3CCC3)nn(-c3ccc(F)cc3)c2n1 [Compound 485, 3-cyclobutyl-1-(4-fluorophenyl)-4-[4-(morpholin-4-yl)piperidin-1-yl]-N-(pyrrolidine-1-sulfonyl)-1H-pyrazolo[3,4-b]pyridine-6-carboxamide] | 399.1% | 90.2 nM | 218.55% | 155 nM

From patent US10259810B2, “N-sulfonylated pyrazolo[3,4-b]pyridin-6-carboxamides and method of use” (AbbVie S.à.r.l., priority 2015, dated 2019)
